Consider 6 sequences from patent US11548925B2, “CACNA1H-derived tumor antigen polypeptide and use thereof” (Genoimmune Therapeutics Co., Ltd., priority 2016, dated 2023).

The test system of the first experiment is CD8+ T cells. The experiment is described as follows: ELISPOTs detection of IFN-γ secretion by peptide-specific CD8+ T cells. The format is cell-based, human. The following applies: ratio of spot numbers; >2 immunogenic.
In the case of TLISSLMPL, the “Fold (tested/wild-type)” value was determined as 8.57.

Turning to TLISSLMPV, the “Fold (tested/wild-type)” value was 7.93.

As for TMISSLMPI, the “Fold (tested/wild-type)” value is recorded as 11.88.

As for TMISSLMPL, the “Fold (tested/wild-type)” value was determined as 8.67.

As for TMISSLMPV, the “Fold (tested/wild-type)” value is reported as 9.86.

In a further experiment the test system is H2087-TLISSLMPI (SEQ ID NO: 2) subcutaneous tumor. The experiment is described as follows: DC vaccine infected with recombinant lentivirus containing peptide gene in H2087-[…] tumor model. It is filed as in vivo, NOD/SCID mice. The following applies: DC infected with lentivirus carrying peptide gene, 2 injections. From the text: The following DNA sequences were synthesized: “[…]” (SEQ ID NO: 8), encoding the wild-type peptide […] (SEQ ID NO: 1); “[…]” (SEQ ID NO: 9), encoding the mutant peptide […] (SEQ ID NO: 2); “[…]” (SEQ ID NO: 10), encoding the SEQ ID NO: 2 […]'s variant peptide […] (SEQ ID NO: 3); “[…]” (SEQ ID NO: 11), encoding the SEQ ID NO: 2 […]'s variant peptide […] (SEQ ID NO: 4); “[…]” (SEQ ID NO: 12), encoding the SEQ ID NO: 2 […]'s variant peptide […] (SEQ ID NO: 5); “[…]” (SEQ ID NO: 13), encoding the SEQ ID NO: 2 […]'s variant peptide […] (SEQ ID NO: 6); and “[…]” (SEQ ID NO: 14), encoding the SEQ ID NO: 2_[…]'s variant peptide […] (SEQ ID NO: 7). The wild-type peptide […] (SEQ ID NO: 1), the mutant peptide […] (SEQ ID NO: 2) and the mutant peptide SEQ ID NO: 2 […]'s variant peptides were constructed into the lentiviral vector pHBLV-Puro, respectively, to name as pHBLV-Puro-[…] (SEQ ID NO: 1), pHBLV-Puro-[…] (SEQ ID NO: 2), pHBLV-Puro-[…] (SEQ ID NO: 3), pHBLV-Puro-[…] (SEQ ID NO: 4), pHBLV-Puro-[…] (SEQ ID NO: 5), pHBLV-Puro-[…] (SEQ ID NO: 6) and pHBLV-Puro-[…] (SEQ ID NO: 7), respectively. The seven lentiviral constructs were co-transfected into 293T cells with helper plasmids pSPAX2 and pMD2G for packaging, and lentiviruses of the wild-type peptide […] (SEQ ID NO: 1), the mutant peptide […] (SEQ ID NO: 2) and the mutant peptide's variant peptides were obtained.
600-900 ml of anticoagulated peripheral blood was collected from healthy volunteers for isolating peripheral blood mononuclear cells (PBMCs) via Ficoll. Cells were collected for use. 2×10^7 PBMCs per 0.5 ml was intraperitoneally injected into each of 300 NOD SCID mice without immune leakage to perform human immune reconstitution in NOD SCID mice. […]
The human non-small cell lung adenocarcinoma cell line H2087-[…] […] The long diameter a and the short diameter b of the tumor were measured with a vernier caliper every 2-3 days and the size of the tumor was calculated as a*b*b/2. The mice and tumors were weighed and recorded every day. […] The tumor volume and the survival rate of mice were recorded every 2 days. […]
On to “TLISSLRPI [wild-type CACNA1H peptide used as comparison, reference compound]”, for which the Tumor-suppressing effect entry is “no effect on this tumor”.

The subject of the next experiment is T2 cells. Briefly: LDH release assay, killing of peptide-loaded T2 target cells by CD8+ T cells. The format is cell-based, human. The following applies: effector-to-target ratio 1:1; target T2 loaded with TLISSLMPI; 4 h. The protocol: The cells cultured in Example 3 were co-cultured with T2 cells loaded with the mutant peptides of the present invention or the wild-type peptide or without a peptide. A maximum release well, a volume correction well, a medium control well, a spontaneous release well and control wells for example at different effector-to-target ratios (ratios of T cells to T2 cells) were set in this experiment. Three replicate wells were set for each group. After 4 h, 50 μl of the co-culture supernatant was taken out and added to 50 μl of LDH substrate mixture to catalyze the reaction of LDH substrate. Finally, the plates were read at a wavelength of 490 nm, with a reference wavelength of 680 nm, and the killing activity against target cells T2 was calculated based on the control wells.
The formula for calculating the killing activity is: Killing efficiency (%)=(test well−spontaneous release of effector cells−spontaneous release of target cells+medium well)/(maximum release of target cells−volume correction well−spontaneous release of target cells+medium well)×100%
In the case of TLISSLMPL, the Killing efficiency is given as 8.23%.

Take TLISSLMPV: the Killing efficiency is listed as 8.56%.

On to TMISSLMPI, for which the Killing efficiency came out at 8.33%.

As to TMISSLMPL, the Killing efficiency is 9.12%.

TMISSLMPV: the Killing efficiency is given as 9.32%.

The experiment is the same for the next values; noted with them: effector-to-target ratio 1:1; target T2 loaded with wild-type TLISSLRPI; 4 h.
As to TLISSLMPL, the Killing efficiency worked out at 3.12%.

With TLISSLMPV, the Killing efficiency came to 2.57%.

With TMISSLMPI, the Killing efficiency stood at 2.85%.

TMISSLMPL: the Killing efficiency is given as 3.13%.

With TMISSLMPV, the Killing efficiency is listed as 3.51%.

Still in this experiment, the particulars now being: effector-to-target ratio 10:1; target T2 loaded with TLISSLMPI; 4 h.
As to TLISSLMPL, the Killing efficiency was 39.66%.

TLISSLMPV: the Killing efficiency was found to be 43.82%.

As to TMISSLMPI, the Killing efficiency is recorded as 41.16%.

As for TMISSLMPL, the Killing efficiency stood at 45.23%.

For TMISSLMPV, the Killing efficiency amounted to 47.35%.

The experiment is the same for the next values; noted with them: effector-to-target ratio 10:1; target T2 loaded with wild-type TLISSLRPI; 4 h.
TLISSLMPL: the Killing efficiency came out at 5.71%.

For the sequence TLISSLMPV, the Killing efficiency amounted to 4.73%.

As to TMISSLMPI, the Killing efficiency is 5.13%.

On to TMISSLMPL, for which the Killing efficiency was determined as 5.83%.

Regarding TMISSLMPV, the Killing efficiency is on record as 6.31%.

The next experiment concerns CD8+ T cells. Briefly: ELISPOTs detection of IFN-γ secretion by peptide-specific CD8+ T cells. It is filed as cell-based, human. The following applies: ELISPOTs. The source says: In this example, a ELISPOTs detection kit (Cat. No.: 3420-4AST-10, MABTECH) was used to verify the activation of an immune response of CD8+ T cells by the peptides of the present invention.
Principle of the ELISPOTs detection method is as follows: CD8+ T cells can specifically recognize the complex of HLA-A0201 and a peptide. The population of T cells recognizing the complex of the peptide and HLA-A0201 is varying, depending on the peptide sequence. Since T2 cells express HLA-A0201, CD8+ T cells can specifically recognize the T2 cells loaded with a peptide. After specific recognition of the complex of HLA-A0201 and the peptide, peptide-specific CD8+ T cells can be activated again to secrete IFN-γ interferon. The IFN-γ interferon secreted by the activated CD8+ T cells can be captured by antibodies on the ELISPOTs plate. Finally, the enzyme-conjugated antibody that recognizes IFN-γ can degrade the substrate through the enzyme conjugated thereto and develop color, eventually producing spots. The number of spots represents the number of cells that are activated to secrete IFN-γ interferon.
The cultured cells from Example 3 were added, along with T2 cells loaded with the mutant peptide […] (SEQ ID NO: 2) of the present invention and the wild-type peptide […] (SEQ ID NO: 1), respectively, into ELISPOTs plates, and cultured for 20 h, and then a ELISPOTs detection was performed (see the kit instruction). Finally, the spots produced by the ELISPOTs detection were counted.
The peptide was determined to have immunogenicity when the number of spots of the tested peptide/the number of spots of an unrelated peptide>2; that is, if the number of spots caused by the tested peptide is more than twice than that of an unrelated peptide, the tested peptide is determined to have immunogenicity.
With TLISSLMPL, the “Conclusion (immunogenicity)” value is reported as “immunogenic”.

As for TLISSLMPV, the “Conclusion (immunogenicity)” value is listed as “immunogenic”.

TMISSLMPI: the “Conclusion (immunogenicity)” value is on record as “immunogenic”.

Regarding TMISSLMPL, the “Conclusion (immunogenicity)” value is recorded as “immunogenic”.

Regarding TMISSLMPV, the “Conclusion (immunogenicity)” value is “immunogenic”.

The experiment is the same for the next values; noted with them: T cells activated by the listed peptide, T2 cells loaded with TLISSLMPI, 20 h.
As to TLISSLMPL, the “Number of spots in the mutant peptide group” value came to 317.

As to TLISSLMPV, the “Number of spots in the mutant peptide group” value amounted to 325.

In the case of TMISSLMPI, the “Number of spots in the mutant peptide group” value stood at 321.

As to TMISSLMPL, the “Number of spots in the mutant peptide group” value stood at 338.

For TMISSLMPV, the “Number of spots in the mutant peptide group” value is 345.

Still in this experiment, the particulars now being: T cells activated by the listed peptide, T2 cells loaded with TLISSLRPI, 20 h.
With TLISSLMPL, the “Number of spots in the wild-type peptide group” value is 37.

On to TLISSLMPV, for which the “Number of spots in the wild-type peptide group” value was 41.

TMISSLMPI: the “Number of spots in the wild-type peptide group” value is listed as 27.

In the case of TMISSLMPL, the “Number of spots in the wild-type peptide group” value was determined as 39.

For the sequence TMISSLMPV, the “Number of spots in the wild-type peptide group” value came out at 35.
